Source: US20180153830A1, “SELECTIVE INHIBITORS OF UNDIFFERENTIATED CELLS” (Yissum Research Development Company of the Hebrew …, priority 2012, published 2018)
Entries after “also recorded” stand apart in the source; their conditions may differ. Read-outs that look alike come from different tables or passages of the source. One block for each compound: values may come before it.

Key:
Format in all cases: cell-based
[1] = CellTiter-Glo counter-screen, hepatocytes; conditions: human, human embryonic stem cell-derived hepatocytes (Cellartis), read-out: Inhibition (%) ES-derived hepatocytes
Protocol: Human embryonic stem cell-derived hepatocytes were obtained from Cellartis (Goteborg, Sweden), and handled according to the manufacturer's instructions;
(§1) 696 confirmed hits from the confirmation screen were tested for profiling in a panel of 13 different cell types, using the same screening protocol described above (except in the case of embryonic stem cell-derived neural stem cells (NSCs) and mesenchymal stem cells (MSCs), for which the protocol is described below). As discussed below, compounds were tested either in dose-dependent multiple concentration manner or in single concentration manner. CSES2 and CSES2-SO2/3 cell lines and the early endodermal progenitors derived from this cell line (CSES2-SO2/3-differentiated) were screened at 8 concentrations ranging from 50 μM to 23 nM with 1:3 serial dilution steps. BJ-iPS28 cell line and the BJ fibroblasts from which it was derived were screened at 6 concentrations ranging from 50 μM to 200 nM with 1:3 serial dilution steps. Cardiomyocytes were screened in one concentration of 20 μM. HeLa and NTERA-2 cell lines were screened in duplicates of 20 μM. Kelly and Huh-7 were screened in triplicates of 20 μM. Hepatocytes were screened in duplicates of 20 μM in the original 96-well plates in which the cells arrived (40,000 cells per well, in 160 μl medium, the volumes of all reagents involved were adjusted accordingly). MSCs and NSCs were screened in duplicates of 12.5 μM.
(§2) In order to identify highly-selective cytotoxic inhibitors of hPSCs, the 696 cytotoxic inhibitors of hPSCs identified as described in Example 1 were counter-screened as described in the Materials and Methods section against other cell types, representative of all germ layers and developmental stages. Importantly, many of these cell types were differentiated from human ES or iPS cells. The screened cell types included ES-derived neural stem cells (NSCs), ES-derived mesenchymal stem cells (MSCs), ES-derived endodermal progenitor cells, ES-derived hepatocytes, iPS-derived cardiomyocytes, iPS-derived fibroblasts of origin (BJ fibroblasts), and three cancer cell lines: neuroblastoma (Kelly), cervical cancer (HeLa) and hepatocarcinoma (Huh7). The cell types and their relationship to stem cells are depicted schematically in FIG. 14.

[2] = tested on: iPS-derived cardiomyocytes; experiment: CellTiter-Glo counter-screen, cardiomyocytes; conditions: Homo sapiens, Cardiomyocyte
Protocol: Human induced pluripotent stem cell-derived cardiomyocytes were obtained from Cellular Dynamics International (Madison, Wis.), and handled according to the manufacturer's instructions;
as §1, §2

[3] = tested on: CSES2 human embryonic stem cells; experiment: CellTiter-Glo luminescent cell viability screen, CSES2; conditions: for inhibition at 20 µM: pluripotent stem cells
Protocol: 5,000 CSES2 cells were plated in 50 μl per well of mTeSR1 medium into black 384-well clear-bottom plates (Falcon BD) pre-coated with Matrigel™ using WellMate cell dispenser (Matrix, Hudson, N.H.). 24 hours after plating, medium was replaced with 25 μl of fresh medium and 25 μl of 40 μM compound medium solutions in 1% DMSO from the intermediate compound dilution plates. The plates were incubated at 37° C., in a 5% CO2 atmosphere, for the entire duration of the screen, apart from the time required for liquid handling. […] 50 μl of CellTiter-Glo® reagent was added to each well of the assay plates and fully mixed. After incubation at room temperature for 15 minutes, 25 μl of liquid was transferred from each well into a white opaque-bottom 384-well plate (PerkinElmer), and luminescence was measured using an EnVision® plate reader (PerkinElmer). 16 neutral control wells (0.5% DMSO) and 8 positive control wells (5 μM amsacrine hydrochloride were used to normalize the compound effect. All liquid transfer steps were handled with a Biomek® FXP Laboratory Automation Workstation (Beckman Coulter, Fullerton, Calif.) and Muitidrop Combi liquid dispenser (Thermo Fisher, Waltham, Mass.). An Assay Analyzer (Genedata, Basel, Switzerland) was used for data pattern correction and calculation. The Spotfire software (Spotfire, Somerville, Mass.) was used for data illustration.
The compounds identified as hits from the primary screen were retested at a concentration of 20 μM against three pluripotent stem cell lines (CSES2, H9 and CSES2-SO2/3) for confirmation screens.
as §1
The raw intensity data for each well were background-corrected by subtraction of the median intensities across all positive control wells on the same plate, and used to calculate the inhibitory effect of each compound per cell line. A Genedata Assay Analyzer and Condoseo were used for data pattern correction, calculation and IC50 curve fitting. A Z′ factor was determined for each plate.

[4] = tested on: human embryonic stem cells; experiment: Oleic acid rescue assay; conditions: 20 μM PluriSIn (2 μM amsacrine); up to 100 μM BSA-OA
Protocol: Human embryonic stem cells were cultured without feeder cells in CELLSTAR® 24-well tissue culture plates (Greiner Bio-One) pre-coated with Matrigel™, using mTeSR1 defined medium. […] After 24 hours, the cells were subjected to microscopy imaging and to cell viability measurements.
In order to further investigate the effect of SCD activity on hPSC viability, the ability of exogenous supplementation of oleic acid (the direct product of SCD1) to rescue cells from PluriSIn-induced apoptosis was further studied, using procedures described in the Materials and Methods section. Cells were exposed to PluriSn #1 in the presence of increasing concentrations of BSA-conjugated oleic acid (BSA-OA).
For comparison, cells were exposed to 20 μM of PluriSIn #1, #2, #3 and #6 in the presence of 100 μM BSA-OA.

[5] = tested on: BJ-fibroblasts; experiment: CellTiter-Glo counter-screen, BJ-fibroblasts; conditions: Homo sapiens; for EC50: 24 hours, differentiated cells
Protocol: The cervical carcinoma cell line HeLa, teratocarcinoma cell line NTERA-2, and immortalized BJ fibroblast cell line, were cultured in DMEM supplemented with 10% FBS, penicillin (50 U/ml) and streptomycin (50 μg/ml).
as §1, §2
In addition, the identified compounds were screened at 6 concentrations using the BJ-fibroblasts from which the iPS line BJ-iPS28 had been derived, and reliable EC50 values were thereby calculated for both the iPS cells and for their somatic cells of origin.

[6] = 24 h, read-out: EC50 CSES2 24 hours
[7] = 48 h, read-out: EC50 CSES2 48 hours

SMILES: O=C(NNc1ccccc1)c1ccncc1 [PluriSIn #1, isonicotinic acid N′-phenylhydrazide]
inhibition at 20 µM [1]: 16.2% | inhibition at 20 µM [2]: 15% | EC50 [3, 6]: 1540 nM | EC50 [3, 7]: 1990 nM | inhibition at 20 µM [3]: 92.1% | protection by BSA-conjugated oleic acid (BSA-OA) against cell death induced by the compound [4]: full rescue; also recorded: protected | EC50 [5]: > 50000 nM | inhibition at 20 µM [5]: -8.8%

SMILES: O=C(NCCc1ccc(O)cc1)c1ccc(N2CCCCC2)cc1 [PluriSIn #4]
inhibition at 20 µM [1]: 10.5% | inhibition at 20 µM [2]: 14.1% | EC50 [3, 6]: 1110 nM | EC50 [3, 7]: 594 nM | inhibition at 20 µM [3]: 84.7% | EC50 [5]: > 50000 nM | inhibition at 20 µM [5]: -22.9%

SMILES: O=S(=O)(NNc1ccccc1)c1ccc2ccccc2c1 [PluriSIn #5]
inhibition at 20 µM [1]: 0.3% | inhibition at 20 µM [2]: 3.1% | EC50 [3, 6]: 3060 nM | EC50 [3, 7]: 1270 nM | inhibition at 20 µM [3]: 88.2% | protection by BSA-conjugated oleic acid (BSA-OA) against cell death induced by the compound [4]: protected | EC50 [5]: > 50000 nM | inhibition at 20 µM [5]: -7.5%

SMILES: Cc1ccc(NNC(=O)C(O)(c2ccccc2)c2cccs2)cc1 (stereo not drawn) [PluriSIn #6, 2-hydroxy-2-(thiophen-2-yl)-2-phenylacetic acid 4-methyl-N′-phenylhydrazide]
inhibition at 20 µM [1]: -5.2% | inhibition at 20 µM [2]: 2.6% | EC50 [3, 6]: 2550 nM | EC50 [3, 7]: 1920 nM | inhibition at 20 µM [3]: 94.8% | protection by BSA-conjugated oleic acid (BSA-OA) against cell death induced by the compound [4]: protected | EC50 [5]: > 50000 nM | inhibition at 20 µM [5]: 15.9%

SMILES: Cc1oc2ccccc2c1/C=N/Nc1ccccc1 [PluriSIn #8]
inhibition at 20 µM [1]: 14.6% | inhibition at 20 µM [2]: 8.9% | EC50 [3, 6]: 2300 nM | EC50 [3, 7]: 2390 nM | inhibition at 20 µM [3]: 98.6% | EC50 [5]: > 50000 nM | inhibition at 20 µM [5]: -10.3%

SMILES: C/C(=N\O)NNc1ccc(Cl)cc1 [PluriSIn #9]
inhibition at 20 µM [1]: 6.1% | inhibition at 20 µM [2]: 24.7% | EC50 [3, 6]: 7960 nM | EC50 [3, 7]: 2160 nM | inhibition at 20 µM [3]: 102% | EC50 [5]: > 50000 nM | inhibition at 20 µM [5]: -22.7%

SMILES: CCCCCC(=O)NNc1ccc(Cl)cc1 [PluriSIn #10]
inhibition at 20 µM [1]: 3.6% | inhibition at 20 µM [2]: 12.6% | EC50 [3, 6]: 1670 nM | EC50 [3, 7]: 2050 nM | inhibition at 20 µM [3]: 95% | EC50 [5]: > 50000 nM | inhibition at 20 µM [5]: -20.1%

SMILES: CCN(CC)C(=O)C(=O)c1c(-c2ccccc2)[nH]c2c1sc1ccccc12 [PluriSIn #12]
inhibition at 20 µM [1]: -3.9% | inhibition at 20 µM [2]: -3.3% | EC50 [3, 6]: 6850 nM | EC50 [3, 7]: 5100 nM | inhibition at 20 µM [3]: 93% | EC50 [5]: > 50000 nM | inhibition at 20 µM [5]: -8.4%

SMILES: O=C(NN(C(=O)c1ccccc1)c1ccccc1)c1ccc(Cl)cc1 [PluriSIn #14]
inhibition at 20 µM [1]: -4.1% | inhibition at 20 µM [2]: 3.9% | EC50 [3, 6]: 2030 nM | EC50 [3, 7]: 2900 nM | inhibition at 20 µM [3]: 90.1% | EC50 [5]: > 50000 nM | inhibition at 20 µM [5]: -18.6%

SMILES: C(=N\C1CCC(CC2CCCCC2)CC1)/OC1CCOC1 (stereo not drawn) [PluriSIn #15]
inhibition at 20 µM [1]: 18.8% | inhibition at 20 µM [2]: 3.8% | EC50 [3, 6]: 2980 nM | EC50 [3, 7]: 3270 nM | inhibition at 20 µM [3]: 77.6% | EC50 [5]: > 50000 nM | inhibition at 20 µM [5]: -6.1%

More lines, main results first:

inhibition at 20 µM [1]: 13.2%
SMILES: O=C(Nc1ccccc1)n1cc(F)c(=O)[nH]c1=O [PluriSIn #2]
inhibition at 20 µM [2]: 4.4% | EC50 [3, 6]: 2030 nM | EC50 [3, 7]: 2630 nM | inhibition at 20 µM [3]: 84% | EC50 [5]: > 50000 nM | inhibition at 20 µM [5]: -8.3%

inhibition at 20 µM [1]: 2.8%
SMILES: Nc1cc(N)cc(COc2ccc(-c3ccccc3)cc2)c1 [PluriSIn #3]
inhibition at 20 µM [2]: -2.9% | EC50 [3, 6]: 2980 nM | EC50 [3, 7]: 1320 nM | inhibition at 20 µM [3]: 98% | EC50 [5]: > 50000 nM | inhibition at 20 µM [5]: -25.4%

inhibition at 20 µM [1]: 15.3%
SMILES: CC(=O)Oc1ccc(/C=C/c2ccc3c(c2)CCN3C)cc1 [PluriSIn #7]
inhibition at 20 µM [2]: 6.8% | EC50 [3, 6]: 1980 nM | EC50 [3, 7]: 749 nM | inhibition at 20 µM [3]: 104% | EC50 [5]: > 50000 nM | inhibition at 20 µM [5]: -9.7%

inhibition at 20 µM [1]: -4.7%
SMILES: CCOC(=O)CN1CC(=O)/C(=C\NNc2ccccc2)C1=O [PluriSIn #11]
inhibition at 20 µM [2]: -5.8% | EC50 [3, 6]: 3830 nM | EC50 [3, 7]: 2580 nM | inhibition at 20 µM [3]: 98.8% | EC50 [5]: > 50000 nM | inhibition at 20 µM [5]: -19.3%

inhibition at 20 µM [1]: 13.4%
SMILES: O=C1C=CC=C1/C=C/C(=N\Nc1ccccc1)c1ccccc1 [PluriSIn #13]
inhibition at 20 µM [2]: 22.9% | EC50 [3, 6]: 1540 nM | EC50 [3, 7]: 1910 nM | inhibition at 20 µM [3]: 101% | EC50 [5]: > 50000 nM | inhibition at 20 µM [5]: -15.4%
